Laboratory results from US8802597B2, “Herbicidal pyrimidines” (E I du Pont de Nemours and Company, priority 2003, dated 2014).

Legend:
Format in all cases: in vivo
[1] = tested on: barnyardgrass (Echinochloa crus-galli); assay: Test A pre/postemergence
In short: (§1)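 Visual injury scored 0–100 (0 = no effect, 100 = complete control) against untreated controls after about ten days in the greenhouse. Compounds, formulated in non-phytotoxic solvent plus surfactant, were applied preemergence as a directed soil spray and postemergence at the 1- to 2-leaf stage (2–10 cm).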

[2] = tested on: crabgrass (Digitaria sanguinalis); assay: Test A pre/postemergence
In short: as §1

[3] = tested on: giant foxtail (Setaria faberi); assay: Test A pre/postemergence
In short: as §1

[4] = tested on: morningglory (Ipomoea spp.); assay: Test A pre/postemergence
In short: as §1

[5] = tested on: redroot pigweed (Amaranthus retroflexus); assay: Test A pre/postemergence
In short: as §1

[6] = tested on: velvetleaf (Abutilon theophrasti); assay: Test A pre/postemergence
In short: as §1

[7] = tested on: barnyardgrass (Echinochloa crus-galli); assay: Test E flooded paddy water application; conditions: Flood, 21 days, scale 0 to 100 (0 no effect, 100 complete control)
Text: (§2) Three plastic pots (ca. 16-cm diameter) per rate were partially filled with sterilized Tama silt loam soil comprising a 35:50:15 ratio of sand, silt and clay and 2.6% organic matter. Separate plantings for each of the three pots were as follows. Seeds from the U.S. of ducksalad (Heteranthera limosa), smallflower umbrella sedge (Cyperus difformis) and purple redstem (Ammannia coccinea), were planted into one 16-cm pot for each rate. Seeds from the U.S. of rice flatsedge (Cyperus iria), bearded (brdd.) sprangletop (Leptochloa fusca ssp. fascicularis), one stand of 9 or 10 water seeded rice seedlings (Oryza sativa cv. ‘Japonica-M202’), and one stand of 6 transplanted rice seedlings (Oryza sativa cv. ‘Japonica-M202’) were planted into one 16-cm pot for each rate. Seeds from the U.S. of barnyardgrass (Echinochloa crus-galli), late watergrass (Echinochloa oryzicola), early watergrass (Echinochloa oryzoides) and junglerice (Echinochloa colona) were planted into one 16-cm pot for each rate. Plantings were sequential so that crop and weed species were at the 2.0 to 2.5-leaf stage at time of treatment.
(§3) Potted plants were grown in a greenhouse with day/night temperature settings of 29.5/26.7° C., and supplemental balanced lighting was provided to maintain a 16-hour photoperiod. Test pots were maintained in the greenhouse until test completion.
(§4) At time of treatment, test pots were flooded to 3 cm above the soil surface, treated by application of test compounds directly to the paddy water, and then maintained at that water depth for the duration of the test. Effects of treatments on rice and weeds were visually evaluated by comparison to untreated controls after 21 days. Plant response ratings, summarized in Table E, are based on a scale of 0 to 100 where 0 is no effect and 100 is complete control. A dash (-) response means no test result.

[8] = tested on: bearded (brdd.) sprangletop (Leptochloa fusca ssp. fascicularis); assay: Test E flooded paddy water application; conditions: Flood, 21 days, scale 0 to 100 (0 no effect, 100 complete control)
Text: as §2, §3, §4

[9] = tested on: ducksalad (Heteranthera limosa); assay: Test E flooded paddy water application; conditions: Flood, 21 days, scale 0 to 100 (0 no effect, 100 complete control)
Text: as §2, §3, §4

[10] = tested on: early watergrass (Echinochloa oryzoides); assay: Test E flooded paddy water application; conditions: Flood, 21 days, scale 0 to 100 (0 no effect, 100 complete control)
Text: as §2, §3, §4

[11] = tested on: junglerice (Echinochloa colona); assay: Test E flooded paddy water application; conditions: Flood, 21 days, scale 0 to 100 (0 no effect, 100 complete control)
Text: as §2, §3, §4

[12] = tested on: late watergrass (Echinochloa oryzicola); assay: Test E flooded paddy water application; conditions: Flood, 21 days, scale 0 to 100 (0 no effect, 100 complete control)
Text: as §2, §3, §4

[13] = tested on: purple redstem (Ammannia coccinea); assay: Test E flooded paddy water application; conditions: Flood, 21 days, scale 0 to 100 (0 no effect, 100 complete control)
Text: as §2, §3, §4

[14] = tested on: rice flatsedge (Cyperus iria); assay: Test E flooded paddy water application; conditions: Flood, 21 days, scale 0 to 100 (0 no effect, 100 complete control)
Text: as §2, §3, §4

[15] = tested on: smallflower umbrella sedge (Cyperus difformis); assay: Test E flooded paddy water application; conditions: Flood, 21 days, scale 0 to 100 (0 no effect, 100 complete control)
Text: as §2, §3, §4

[16] = tested on: transplanted rice seedlings (Oryza sativa cv. ‘Japonica-M202’); assay: Test E flooded paddy water application; conditions: Flood, 21 days, scale 0 to 100 (0 no effect, 100 complete control)
Text: as §2, §3, §4

[17] = tested on: water seeded rice seedlings (Oryza sativa cv. ‘Japonica-M202’); assay: Test E flooded paddy water application; conditions: Flood, 21 days, scale 0 to 100 (0 no effect, 100 complete control)
Text: as §2, §3, §4

[18] = Postemergence, 125 g ai/ha, 0 to 100 scale (0 no effect, 100 complete control)
[19] = Postemergence, 500 g ai/ha, 0 to 100 scale (0 no effect, 100 complete control)
[20] = Preemergence, 125 g ai/ha, 0 to 100 scale where 0 is no effect and 100 is complete control, approximately ten days
[21] = Preemergence, 500 g ai/ha, 0 to 100 scale where 0 is no effect and 100 is complete control, approximately ten days

With CCOC(=O)c1nc(-c2ccc(C)c(C)c2)nc(N)c1Br [Compound 70] the “Plant response rating, Barnyardgrass” value [1, 18] was 0, the “Plant response rating, Barnyardgrass” value [1, 19] was 0 and the “Plant response rating, Barnyardgrass” value [1, 20] was 0. The “Plant response rating, Barnyardgrass” value [1, 21] was 0, the “Plant response rating, Crabgrass” value [2, 18] was 0 and the “Plant response rating, Crabgrass” value [2, 19] was 20. For the same molecule, the “Plant response rating, Crabgrass” value [2, 20] was 5, the “Plant response rating, Crabgrass” value [2, 21] was 20 and the “Plant response rating, Foxtail, Giant” value [3, 18] was 0. For the same molecule, the “Plant response rating, Foxtail, Giant” value [3, 19] was 0, the “Plant response rating, Foxtail, Giant” value [3, 20] was 5 and the “Plant response rating, Foxtail, Giant” value [3, 21] was 5. The “Plant response rating, Morningglory” value [4, 18] was 0, the “Plant response rating, Morningglory” value [4, 19] was 10 and the “Plant response rating, Morningglory” value [4, 20] was 0. The “Plant response rating, Morningglory” value [4, 21] was 0, the “Plant response rating, Pigweed” value [5, 18] was 15 and the “Plant response rating, Pigweed” value [5, 19] was 20. The “Plant response rating, Pigweed” value [5, 20] was 0, the “Plant response rating, Pigweed” value [5, 21] was 10 and the “Plant response rating, Velvetleaf” value [6, 18] was 35. The “Plant response rating, Velvetleaf” value [6, 19] was 60, the “Plant response rating, Velvetleaf” value [6, 20] was 20 and the “Plant response rating, Velvetleaf” value [6, 21] was 35. For the same molecule, the “Barnyardgrass plant response rating” value ([7]; 32 g ai/ha) was 0, the “Barnyardgrass plant response rating” value ([7]; 64 g ai/ha) was 0 and the “Barnyardgrass plant response rating” value ([7]; 125 g ai/ha) was 0. For the same molecule, the “Barnyardgrass plant response rating” value ([7]; 250 g ai/ha) was 0, the “Plant response rating, Barnyardgrass” value ([7]; 16 g ai/ha) was 0 and the “Sprangletop, Brdd. plant response rating” value ([8]; 32 g ai/ha) was 0. For the same molecule, the “Sprangletop, Brdd. plant response rating” value ([8]; 64 g ai/ha) was 0, the “Sprangletop, Brdd. plant response rating” value ([8]; 125 g ai/ha) was 0 and the “Sprangletop, Brdd. plant response rating” value ([8]; 250 g ai/ha) was 0. The “Plant response rating, Sprangletop, Brdd.” value ([8]; 16 g ai/ha) was 0, the “Ducksalad plant response rating” value ([9]; 32 g ai/ha) was 40 and the “Ducksalad plant response rating” value ([9]; 64 g ai/ha) was 100. The “Ducksalad plant response rating” value ([9]; 125 g ai/ha) was 100, the “Ducksalad plant response rating” value ([9]; 250 g ai/ha) was 100 and the “Plant response rating, Ducksalad” value ([9]; 16 g ai/ha) was 0. The “Watergrass, Early plant response rating” value ([10]; 32 g ai/ha) was 0, the “Watergrass, Early plant response rating” value ([10]; 64 g ai/ha) was 0 and the “Watergrass, Early plant response rating” value ([10]; 125 g ai/ha) was 0. The “Watergrass, Early plant response rating” value ([10]; 250 g ai/ha) was 0, the “Plant response rating, Watergrass, Early” value ([10]; 16 g ai/ha) was 0 and the “Junglerice plant response rating” value ([11]; 32 g ai/ha) was 0. The “Junglerice plant response rating” value ([11]; 64 g ai/ha) was 0, the “Junglerice plant response rating” value ([11]; 125 g ai/ha) was 0 and the “Junglerice plant response rating” value ([11]; 250 g ai/ha) was 0. For the same molecule, the “Plant response rating, Junglerice” value ([11]; 16 g ai/ha) was 0, the “Watergrass, Late plant response rating” value ([12]; 32 g ai/ha) was 0 and the “Watergrass, Late plant response rating” value ([12]; 64 g ai/ha) was 0. The “Watergrass, Late plant response rating” value ([12]; 125 g ai/ha) was 0, the “Watergrass, Late plant response rating” value ([12]; 250 g ai/ha) was 0 and the “Plant response rating, Watergrass, Late” value ([12]; 16 g ai/ha) was 0. The “Redstem plant response rating” value ([13]; 32 g ai/ha) was 0, the “Redstem plant response rating” value ([13]; 64 g ai/ha) was 0 and the “Redstem plant response rating” value ([13]; 125 g ai/ha) was 0. For the same molecule, the “Redstem plant response rating” value ([13]; 250 g ai/ha) was 0, the “Plant response rating, Redstem” value ([13]; 16 g ai/ha) was 0 and the “Flatsedge, Rice plant response rating” value ([14]; 32 g ai/ha) was 0. For the same molecule, the “Flatsedge, Rice plant response rating” value ([14]; 64 g ai/ha) was 0, the “Flatsedge, Rice plant response rating” value ([14]; 125 g ai/ha) was 30 and the “Flatsedge, Rice plant response rating” value ([14]; 250 g ai/ha) was 65. For the same molecule, the “Plant response rating, Flatsedge, Rice” value ([14]; 16 g ai/ha) was 0, the “Sedge, Umbrella plant response rating” value ([15]; 32 g ai/ha) was 0 and the “Sedge, Umbrella plant response rating” value ([15]; 64 g ai/ha) was 0. For the same molecule, the “Sedge, Umbrella plant response rating” value ([15]; 125 g ai/ha) was 0, the “Sedge, Umbrella plant response rating” value ([15]; 250 g ai/ha) was 60 and the “Plant response rating, Sedge, Umbrella” value ([15]; 16 g ai/ha) was 0. For the same molecule, the “Rice, Transplanted plant response rating” value ([16]; 32 g ai/ha) was 0, the “Rice, Transplanted plant response rating” value ([16]; 64 g ai/ha) was 0 and the “Rice, Transplanted plant response rating” value ([16]; 125 g ai/ha) was 0. The “Rice, Transplanted plant response rating” value ([16]; 250 g ai/ha) was 0, the “Plant response rating, Rice, Transplanted” value ([16]; 16 g ai/ha) was 0 and the “Rice, Water Seeded plant response rating” value ([17]; 32 g ai/ha) was 0. The “Rice, Water Seeded plant response rating” value ([17]; 64 g ai/ha) was 0, the “Rice, Water Seeded plant response rating” value ([17]; 125 g ai/ha) was 0 and the “Rice, Water Seeded plant response rating” value ([17]; 250 g ai/ha) was 0. For the same molecule, the “Plant response rating, Rice, Water Seeded” value ([17]; 16 g ai/ha) was 0.
